Measurements as given in PubChem BioAssay (NCI).
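Cells were grown in 96-well plates and exposed to each compound for 48 hours at five concentrations; endpoints were interpolated linearly between bracketing concentrations, or set to the highest concentration if not reached. TGI denotes the concentration required for complete inhibition of growth.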

Legend:
Assay in all cases: NCI tumour cell line growth inhibition, 48 h
786-0 renal = tested on: 786-0 renal
A498 renal = tested on: A498 renal
A549 NSCLC = tested on: A549 NSCLC
ACHN renal = tested on: ACHN renal
CAKI-1 renal = tested on: CAKI-1 renal
CCRF-CEM leukemia = tested on: CCRF-CEM leukemia
COLO 205 colon = tested on: COLO 205 colon
DLD-1 colon = tested on: DLD-1 colon
DMS 114 small cell lung = tested on: DMS 114 small cell lung
DMS 273 small cell lung = tested on: DMS 273 small cell lung
EKVX NSCLC = tested on: EKVX NSCLC
HCC-2998 colon = tested on: HCC-2998 colon
HCT-116 colon = tested on: HCT-116 colon
HCT-15 colon = tested on: HCT-15 colon
HL-60(TB) leukemia = tested on: HL-60(TB) leukemia
HOP-18 NSCLC = tested on: HOP-18 NSCLC
HOP-62 NSCLC = tested on: HOP-62 NSCLC
HOP-92 NSCLC = tested on: HOP-92 NSCLC
HT29 colon = tested on: HT29 colon
IGROV1 ovarian = tested on: IGROV1 ovarian
K-562 leukemia = tested on: K-562 leukemia
KM12 colon = tested on: KM12 colon
KM20L2 colon = tested on: KM20L2 colon
LOX IMVI melanoma = tested on: LOX IMVI melanoma
LXFL 529 NSCLC = tested on: LXFL 529 NSCLC
M14 melanoma = tested on: M14 melanoma
M19-MEL melanoma = tested on: M19-MEL melanoma
MALME-3M melanoma = tested on: MALME-3M melanoma
MOLT-4 leukemia = tested on: MOLT-4 leukemia
NCI-H226 lung = tested on: NCI-H226 lung
NCI-H23 lung = tested on: NCI-H23 lung
NCI-H460 lung = tested on: NCI-H460 lung
NCI-H522 lung = tested on: NCI-H522 lung
OVCAR-3 ovarian = tested on: OVCAR-3 ovarian
OVCAR-4 ovarian = tested on: OVCAR-4 ovarian
OVCAR-5 ovarian = tested on: OVCAR-5 ovarian
OVCAR-8 ovarian = tested on: OVCAR-8 ovarian
RXF 393 renal = tested on: RXF 393 renal
SF-268 CNS = tested on: SF-268 CNS
SF-295 CNS = tested on: SF-295 CNS
SF-539 CNS = tested on: SF-539 CNS
SK-MEL-2 melanoma = tested on: SK-MEL-2 melanoma
SK-MEL-28 melanoma = tested on: SK-MEL-28 melanoma
SK-MEL-5 melanoma = tested on: SK-MEL-5 melanoma
SK-OV-3 ovarian = tested on: SK-OV-3 ovarian
SN12C renal = tested on: SN12C renal
SNB-19 CNS = tested on: SNB-19 CNS
SNB-75 CNS = tested on: SNB-75 CNS
SNB-78 CNS = tested on: SNB-78 CNS
SW-620 colon = tested on: SW-620 colon
TK-10 renal = tested on: TK-10 renal
U251 CNS = tested on: U251 CNS
UACC-257 melanoma = tested on: UACC-257 melanoma
UACC-62 melanoma = tested on: UACC-62 melanoma
UO-31 renal = tested on: UO-31 renal
XF 498 CNS = tested on: XF 498 CNS
RPMI-8226 leukemia = tested on: RPMI-8226 leukemia
SR leukemia = tested on: SR leukemia

Measured: TGI

N[C@H](C(=O)O)[C@H](Cl)CC(=O)O
not listed: RPMI-8226 leukemia | SR leukemia
> 100 µM: all other assays above

O=C1CC[C@@H](S(=O)(=O)c2ccccc2)[C@@H](/C=C/c2ccccc2)O1
not listed: CAKI-1 renal | DLD-1 colon | DMS 273 small cell lung | HOP-92 NSCLC | SF-268 CNS | SK-MEL-2 melanoma | SNB-78 CNS | XF 498 CNS
> 100 µM: all other assays above

CCCCCCCCCCCCCCCCCCCCCC(=O)Nc1ccn(C2OC(CO)C(O)C2O)c(=O)n1 (stereo not drawn)
> 43.2 µM: DMS 114 small cell lung
> 37.1 µM: MOLT-4 leukemia
> 57.6 µM: HOP-62 NSCLC
32.6 µM: M14 melanoma
26.8 µM: SR leukemia
> 82.6 µM: ACHN renal
> 40.7 µM: CCRF-CEM leukemia
> 100 µM: all other assays above

CCC12CCCC(=O)N1C(CO)C(c1ccccc1)O2 (stereo not drawn)
not listed: HCC-2998 colon | HL-60(TB) leukemia | LXFL 529 NSCLC | M14 melanoma | MOLT-4 leukemia | NCI-H226 lung | NCI-H522 lung | SK-OV-3 ovarian | UO-31 renal
> 100 µM: all other assays above
